Values quoted from earlier work as cited in patent US9510613B2, “Panaxadiol-containing composition” (LION CORPORATION, priority 2011, dated 2016).

Details: commercial component, Table 3

Substance | HLB
Glycerin Monostearate Citrate | 9.5
Sucrose Lauric Acid Ester | 16
Sucrose Myristic Acid Ester | 16
Sucrose Palmitic Acid Ester | 16
Sucrose Stearic Acid Ester | 16
